# Data published in patent publication US20240317752A1, “6-SUBSTITUTED-9H-PURINE DERIVATIVES AND RELATED USES” (Black Diamond Therapeutics, Inc., priority 2021, published 2024).
# Molecular target: T1, BaF3 BRAF-KIAA1549 fusion cells (Homo sapiens, UniProt P15056)
# T1 construct: The BRAF-KIAA1549 fusion mutant was subcloned into pMXs-IRES-Blasticidin (RTV-016, Cell Biolabs, San Diego, CA); fused on or other part: Q9HCM3 (UPF0606 protein KIAA1549)
# Assay: BaF3 BRAF-KIAA1549 fusion cell proliferation assay (CellTiterGlo)
# Assay type: cell-based
# Details: 96 hours incubation, potency code
# Procedure: Retroviral Production: The BRAF-KIAA1549 fusion mutant was subcloned into pMXs-IRES-Blasticidin (RTV-016, Cell Biolabs, San Diego, CA). Retrovirus was produced by transfection of HEK 293T cells with the retroviral BRAF mutant expression vector pMXs-IRES-Blasticidin (RTV-016, Cell Biolabs), pCMV-Gag-Pol vector and pCMV-VSV-G-Envelope vector. Briefly, HEK 293T cells were plated in Poly-D-lysine coated 6-well plate (2.5×10^5 cells per well) and incubated overnight. The next day, retroviral plasmids (1 μg of BRAF-KIAA fusion mutant, 0.32 μg of pCMV-Gag-Pol and 0.165 μg pCMV-VSV-G) were mixed in 300 μL of Optimem (31985, Life Technologies). The mixture was incubated at room temperature for 5 minutes and then added to Optimem containing transfection reagent Lipofectamine (11668, Invitrogen) and incubated for 20 minutes. The mixture was then added dropwise to HEK 293T cells. The next day the medium was replaced with fresh culture medium and retrovirus was harvested at 24 hours.
# Generation of BRAF-KIAA1549 fusion stable cell line: BaF3 cells were plated in V-bottom 96 well plate (COSTAR #3894) in 80 μL of RPMI/10% FBS and 0.01 ng/ml mouse IL-3; supplemented with 8 μg/mL polybrene (4×10^4 cells/well). Cells were transduced with 20 μL of BRAF-KIAA1549 fusion viral supernatant by centrifuging for 30 minutes at 1000 rpm. Cells were placed in a 37° C. incubator overnight. Next day 100 μL of RPMI/10% FBS and 0.01 ng/ml mouse IL-3 was added. After 24 hours, 100 μL of cells were transferred to a 24 well plate containing 900 μL of RPMI/10% FBS and 15 μg/mL Blasticidin. Contents of the 24 well plate were sampled for cell viability via CellTiterGlo (Promega) over a 2-week period.
# Assay for cell proliferation: BaF3 BRAF-KIAA1549 fusion cells were resuspended at 1.5×10^5c/mL in RPMI containing 10% Heat Inactivated FBS, 1% L-glutamine and dispensed in duplicate ([…]) into 384 well plates. To determine the effect of compound on cell proliferation, BaF3 BRAF-KIAA1549 fusion cells were incubated for 96 hours in the presence of vehicle control (DMSO) or compound at varying concentrations. Inhibition of cell growth was determined by luminescent quantification (Envision by Perkin Elmer) of intracellular ATP content using CellTiterGlo (Promega), according to the protocol provided by the manufacturer. To determine the IC50 values, the vehicle-treated cells were normalized as viable cells and analyzed using the CDD Vault, Collaborative Drug Discovery, Burlingame, CA (the Levenberg-Marquardt algorithm; Levenberg, K., […]; Marquardt, D., 1963).
# Tables A1 and A2 assign each compound a code for potency in the BaF3 BRAF-KIAA1549 fusion cell proliferation assay: A, B, C, or D. According to the code, A represents an IC50 value <20 nM; B represents an IC50 value ≥20 nM and <100 nM; C represents an IC50 value ≥100 nM and <500 nM; and D represents an IC50 value ≥500 nM.
# T1 sequence (P15056 whole entry, change not shown, the tested form may be a part): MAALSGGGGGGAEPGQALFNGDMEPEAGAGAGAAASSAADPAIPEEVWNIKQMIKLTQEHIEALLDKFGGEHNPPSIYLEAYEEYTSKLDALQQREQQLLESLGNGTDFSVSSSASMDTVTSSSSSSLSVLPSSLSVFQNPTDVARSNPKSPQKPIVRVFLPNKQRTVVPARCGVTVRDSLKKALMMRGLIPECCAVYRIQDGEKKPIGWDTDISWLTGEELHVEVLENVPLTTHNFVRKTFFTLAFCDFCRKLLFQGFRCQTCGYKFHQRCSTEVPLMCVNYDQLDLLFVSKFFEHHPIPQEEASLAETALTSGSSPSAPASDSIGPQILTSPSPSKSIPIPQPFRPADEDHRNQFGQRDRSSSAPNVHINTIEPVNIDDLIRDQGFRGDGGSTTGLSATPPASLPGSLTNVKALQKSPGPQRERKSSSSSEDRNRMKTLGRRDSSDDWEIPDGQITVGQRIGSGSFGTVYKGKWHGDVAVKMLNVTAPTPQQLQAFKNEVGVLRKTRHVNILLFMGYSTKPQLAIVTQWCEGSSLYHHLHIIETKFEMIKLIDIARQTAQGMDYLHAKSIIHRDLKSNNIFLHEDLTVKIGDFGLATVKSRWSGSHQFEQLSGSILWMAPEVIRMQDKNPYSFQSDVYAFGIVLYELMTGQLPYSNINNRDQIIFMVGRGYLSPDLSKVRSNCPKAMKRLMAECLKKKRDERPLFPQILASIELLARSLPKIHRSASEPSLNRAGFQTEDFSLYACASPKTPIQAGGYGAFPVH
row,GI50 [nM],SMILES
1,20 to 100,"Cc1ccc(NC(=O)c2ccc(Cl)c(OC(F)(F)F)c2)cc1Nc1ncccc1-c1ncnc2[nH]cnc12 [Compound I-69, N-(3-((3-(9H-purin-6-yl)pyridin-2-yl)amino)-4-methylphenyl)-4-chloro-3-(trifluoromethoxy)benzamide]"
2,20 to 100,"Cc1ccc(NC(=O)c2cnc(C(F)(F)F)c(C#N)c2)cc1Nc1ncccc1-c1ncnc2[nH]cnc12 [Compound I-70, N-(3-((3-(9H-purin-6-yl)pyridin-2-yl)amino)-4-methylphenyl)-5-cyano-6-(trifluoromethyl)nicotinamide]"
3,20 to 100,"Cc1cnc(C(=O)Nc2ccc(C)c(Nc3ncccc3-c3ncnc4[nH]cnc34)c2)cc1C#N [Compound I-71, N-(3-((3-(9H-purin-6-yl)pyridin-2-yl)amino)-4-methylphenyl)-4-cyano-5-methylpicolinamide]"
4,20 to 100,"Cc1ccc(NC(=O)Cn2cnc(C(F)(F)F)n2)cc1Nc1ncccc1-c1ncnc2[nH]cnc12 [Compound I-78, N-(3-((3-(9H-purin-6-yl)pyridin-2-yl)amino)-4-methylphenyl)-2-(3-(trifluoromethyl)-1H-1,2,4-triazol-1-yl)acetamide]"
5,20 to 100,"Cc1ccc(NC(=O)c2cc(C(F)F)c(C)cn2)cc1Nc1ncccc1-c1ncnc2[nH]cnc12 [IA-90, N-(3-((3-(9H-purin-6-yl)pyridin-2-yl)amino)-4-methylphenyl)-4-(difluoromethyl)-5-methylpicolinamide]"
6,20 to 100,"Cc1ccc(NC(=O)c2ncc(C)c(C(F)(F)F)c2F)cc1Nc1ncccc1-c1ncnc2[nH]cnc12 [IA-91, N-(3-(3-(9H-purin-6-yl)pyridin-2-ylamino)-4-methylphenyl)-3-fluoro-5-methyl-4-(trifluoromethyl)picolinamide]"
7,20 to 100,"CCc1cnc(C(=O)Nc2ccc(C)c(Nc3ncccc3-c3ncnc4[nH]cnc34)c2)cc1C(F)(F)F [IA-92, N-(3-(3-(9H-purin-6-yl)pyridin-2-ylamino)-4-methylphenyl)-5-ethyl-4-(trifluoromethyl)picolinamide]"
8,20 to 100,"Cc1cc(C(F)(F)F)cc(C(=O)Nc2ccc(C)c(Nc3ncccc3-c3ncnc4[nH]cnc34)c2)n1 [IA-93, N-(3-((3-(9H-purin-6-yl)pyridin-2-yl)amino)-4-methylphenyl)-6-methyl-4-(trifluoromethyl)picolinamide]"
9,100 to 500,"Cc1ccc(NC(=O)c2cc(C(F)(F)F)c(OC3CN(C)C3)cn2)cc1Nc1ncccc1-c1ncnc2[nH]cnc12 [IA-94, N-(3-(3-(9H-purin-6-yl)pyridin-2-ylamino)-4-methylphenyl)-5-(1-methylazetidin-3-yloxy)-4-(trifluoromethyl)picolinamide]"
10,< 20,"Cc1ccc(NC(=O)c2cc(C(F)(F)F)c(OC3COC3)cn2)cc1Nc1ncccc1-c1ncnc2[nH]cnc12 [IA-95, N-(3-(3-(9H-purin-6-yl)pyridin-2-ylamino)-4-methylphenyl)-5-(oxetan-3-yloxy)-4-(trifluoromethyl)picolinamide]"
11,20 to 100,"Cc1ccc(NC(=O)c2cc(C(F)(F)F)c(OC3CNC3)cn2)cc1Nc1ncccc1-c1ncnc2[nH]cnc12 [IA-96, N-(3-(3-(9H-purin-6-yl)pyridin-2-ylamino)-4-methylphenyl)-5-(azetidin-3-yloxy)-4-(trifluoromethyl)picolinamide]"
12,< 20,"Cc1ccc(NC(=O)c2cc(C(F)(F)F)c(OCCN(C)C)cn2)cc1Nc1ncccc1-c1ncnc2[nH]cnc12 [IA-97, N-(3-(3-(9H-purin-6-yl)pyridin-2-ylamino)-4-methylphenyl)-5-(2-(dimethylamino)ethoxy)-4-(trifluoromethyl)picolinamide]"
13,< 20,"Cc1ccc(NC(=O)c2cc(C(F)(F)F)cc(OCCO)n2)cc1Nc1ncccc1-c1ncnc2[nH]cnc12 [IA-98, N-(3-((3-(9H-purin-6-yl)pyridin-2-yl)amino)-4-methylphenyl)-6-(2-hydroxyethoxy)-4-(trifluoromethyl)picolinamide]"

# Further lines, the molecule ahead of its results:
row,SMILES,GI50 [nM]
1,"Cc1ccc(-c2ncnc3[nH]cnc23)c(Nc2cc(NC(=O)c3cc(C(F)(F)F)ccn3)ccc2C)n1 [Compound I-67, N-(4-methyl-3-((6-methyl-3-(9H-purin-6-yl)pyridin-2-yl)amino)phenyl)-4-(trifluoromethyl)picolinamide]",20 to 100
2,"CCc1ccc(NC(=O)c2cc(C(F)(F)F)ccn2)cc1Nc1ncccc1-c1ncnc2[nH]cnc12 [Compound I-68, N-(3-((3-(9H-purin-6-yl)pyridin-2-yl)amino)-4-ethylphenyl)-4-(trifluoromethyl)picolinamide]",20 to 100
3,"Cc1c(F)cc(NC(=O)c2ccnc(C3(F)CC3)c2)cc1Nc1ncccc1-c1ncnc2[nH]cnc12 [Compound I-72, N-(3-((3-(9H-purin-6-yl)pyridin-2-yl)amino)-5-fluoro-4-methylphenyl)-2-(1-fluorocyclopropyl)isonicotinamide]",< 20
4,"Cc1ccc(NC(=O)c2ccc3c(c2)OCO3)cc1Nc1ncccc1-c1ncnc2[nH]cnc12 [Compound I-74, N-(3-((3-(9H-purin-6-yl)pyridin-2-yl)amino)-4-methylphenyl)benzo[d][1,3]dioxole-5-carboxamide]",20 to 100
5,"Cc1ccc(NC(=O)CC2CCOC(C(F)(F)F)C2)cc1Nc1ncccc1-c1ncnc2[nH]cnc12 (stereo not drawn) [Compound I-75, N-(3-((3-(9H-purin-6-yl)pyridin-2-yl)amino)-4-methylphenyl)-2-(2-(trifluoromethyl)tetrahydro-2H-pyran-4-yl)acetamide]",20 to 100
6,"Cc1ccc(NC(=O)CC2CCNC(C(F)(F)F)C2)cc1Nc1ncccc1-c1ncnc2[nH]cnc12 (stereo not drawn) [Compound I-76, N-(3-((3-(9H-purin-6-yl)pyridin-2-yl)amino)-4-methylphenyl)-2-(2-(trifluoromethyl)piperidin-4-yl)acetamide]",≥ 500
7,"Cc1ccc(NC(=O)CN2CCCC(C(F)(F)F)C2)cc1Nc1ncccc1-c1ncnc2[nH]cnc12 (stereo not drawn) [Compound I-77, N-(3-((3-(9H-purin-6-yl)pyridin-2-yl)amino)-4-methylphenyl)-2-(3-(trifluoromethyl)piperidin-1-yl)acetamide]",< 20
8,"Cc1ccc(C(=O)Nc2cc(C(C)(C)C)nn2C2CC2)cc1Nc1ncccc1-c1ncnc2[nH]cnc12 [Compound I-79, 3-((3-(9H-purin-6-yl)pyridin-2-yl)amino)-N-(3-(tert-butyl)-1-cyclopropyl-1H-pyrazol-5-yl)-4-methylbenzamide]",100 to 500
9,"Cc1ccc(NC(=O)c2cccc(N(C)C)c2)cc1Nc1ncccc1-c1ncnc2[nH]cnc12 [Compound I-80, N-(3-((3-(9H-purin-6-yl)pyridin-2-yl)amino)-4-methylphenyl)-3-(dimethylamino)benzamide]",< 20
10,"Cc1ccc(NC(=O)c2ccc(Cl)c(N(C)C)c2)cc1Nc1ncccc1-c1ncnc2[nH]cnc12 [Compound I-81, N-(3-((3-(9H-purin-6-yl)pyridin-2-yl)amino)-4-methylphenyl)-4-chloro-3-(dimethylamino)benzamide]",< 20
11,"Cc1ccc(NC(=O)CC2CCCCCO2)cc1Nc1ncccc1-c1ncnc2[nH]cnc12 (stereo not drawn) [Compound I-82, N-(3-((3-(9H-purin-6-yl)pyridin-2-yl)amino)-4-methylphenyl)-2-(oxepan-2-yl)acetamide]",< 20
12,"Cc1ccc(NC(=O)CC2CCNCCO2)cc1Nc1ncccc1-c1ncnc2[nH]cnc12 (stereo not drawn) [Compound I-83, N-(3-((3-(9H-purin-6-yl)pyridin-2-yl)amino)-4-methylphenyl)-2-(1,4-oxazepan-7-yl)acetamide]",≥ 500
13,"Cc1ccc(NC(=O)CN2CCN3CCC2C3)cc1Nc1ncccc1-c1ncnc2[nH]cnc12 (stereo not drawn) [Compound I-89, N-(3-((3-(9H-purin-6-yl)pyridin-2-yl)amino)-4-methylphenyl)-2-(1,4-diazabicyclo[3.2.1]octan-4-yl)acetamide]",≥ 500
14,"Cc1ccc(NC(=O)CC2CCCCOC2)cc1Nc1ncccc1-c1ncnc2[nH]cnc12 (stereo not drawn) [IA-99, N-(3-(3-(9H-purin-6-yl)pyridin-2-ylamino)-4-methylphenyl)-2-(oxepan-3-yl)acetamide]",20 to 100
